Data reported in ChEMBL document CHEMBL5338758, “Design, Synthesis, and Bioevaluation of Novel MyD88 Inhibitor c17 against Acute Lung Injury Derived from the Virtual Screen” (J Med Chem, 2023).
The source made the active and inactive calls. The calls are words filed in the database; no cut-off is given here.

Key:
J774.A1 [1] = assay: Anti-inflammatory activity in mouse J774.A1 cells assessed as inhibition of LPS-induced IL-6 production at 10 uM pre-stimulated with LPS for 24 hrs followed by compound addition and measured after 0.5 hrs by ELISA analysis relative to control; assay type: functional
J774.A1 [2] = assay: Anti-inflammatory activity in mouse J774.A1 cells assessed as inhibition of LPS-induced TNF-alpha production at 10 uM pre-stimulated with LPS for 24 hrs followed by compound addition and measured after 0.5 hrs by ELISA analysis relative to control; assay type: functional
[3] = target: T1, Myeloid differentiation primary response protein MyD88 (Homo sapiens, UniProt Q99836); assay: Binding affinity to human MyD88 TIR domain assessed as equilibrium dissociation constant by SPR analysis
J774.A1 [4] = assay: Anti-inflammatory activity in mouse J774.A1 cells assessed as suppression of LPS-induced IL-6 production by ELISA analysis; assay type: functional, cell-based
J774.A1 [5] = assay: Anti-inflammatory activity in mouse J774.A1 cells assessed as inhibition of LPS-induced IL-6 production pre-stimulated with LPS for 24 hrs followed by compound addition and measured after 0.5 hrs by ELISA analysis; assay type: functional, cell-based
J774.A1 [6] = assay: Anti-inflammatory activity in mouse J774.A1 cells assessed as inhibition of LPS-induced TNF-alpha production pre-stimulated with LPS for 24 hrs followed by compound addition and measured after 0.5 hrs by ELISA analysis; assay type: functional, cell-based
J774.A1 [7] = assay: Cytotoxicity against mouse J774.A1 cells assessed as reduction in cell survival incubated for 24 hrs by MTT assay; assay type: toxicity, cell-based; settings: j774.a1, 24 h
[8] = target: T1, Myeloid differentiation primary response protein MyD88; assay: Binding affinity to human MyD88 TIR domain by SPR analysis; settings: dose 1.19-5.94 10^-5M

T1 sequence (Q99836 whole entry, the tested form may be a part): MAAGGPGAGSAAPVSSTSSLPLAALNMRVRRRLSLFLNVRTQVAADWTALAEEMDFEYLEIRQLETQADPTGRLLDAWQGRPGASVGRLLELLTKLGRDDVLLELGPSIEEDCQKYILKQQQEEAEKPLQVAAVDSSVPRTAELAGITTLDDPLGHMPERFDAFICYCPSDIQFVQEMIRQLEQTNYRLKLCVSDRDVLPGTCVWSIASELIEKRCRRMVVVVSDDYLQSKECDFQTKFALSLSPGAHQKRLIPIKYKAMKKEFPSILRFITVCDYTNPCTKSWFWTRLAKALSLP

SMILES	inhibition at 10 µM (J774.A1 [1]) [%]	inhibition at 10 µM (J774.A1 [2]) [%]	also measured
CC(=O)N1CCN(Cc2ccc3c(=O)[nH]c(-c4ccccc4)nc3c2)CC1	26		inhibition (J774.A1 [2]): inactive
COCCN1CCN(Cc2ccc(-c3cc(-c4ccccc4)[nH]c(=O)n3)cc2)CC1		25.6	inhibition (J774.A1 [1]): inactive
COCCN1CCN(c2ccc(S(=O)(=O)Nc3ccc(OC)nc3)cc2[N+](=O)[O-])CC1	47.3	1.16	
COc1ccc(-c2cc(-c3ccc(CN4CCN(CCO)CC4)cc3)nc(=O)[nH]2)cc1	8.43	33.7	
COc1ccc(NS(=O)(=O)c2ccc(N3CCN(c4cnc(NC(C)=O)s4)CC3)c([N+](=O)[O-])c2)cn1	39.9	12.2	
O=c1nc(-c2ccc(CN3CCN(c4ccc([N+](=O)[O-])cc4)CC3)cc2)cc(-c2ccccc2)[nH]1	15.7	50.6	
COc1ccc(CN2CCN(c3ccc(S(=O)(=O)Nc4ccc(OC)nc4)cc3[N+](=O)[O-])CC2)cc1	63.5	27.9	
CC(=O)N1CCN(Cc2ccc(-c3nc4ccccc4c(=O)[nH]3)cc2)CC1	53.7	11.9	
O=C(Nc1ccccc1)c1ccc(N2CCN(Cc3cccc([N+](=O)[O-])c3)CC2)c([N+](=O)[O-])c1			inhibition (J774.A1 [1]): inactive; inhibition (J774.A1 [2]): inactive
O=[N+]([O-])c1cc(S(=O)(=O)Nc2ccccc2)ccc1N1CCN(CCO)CC1	55.6	7.89	
O=C(NCc1ccccn1)c1ccc(N2CCN(Cc3ccccc3)CC2)c([N+](=O)[O-])c1	36.4	35.4	
COc1ccc(NS(=O)(=O)c2ccc(N3CCN(c4ncccn4)CC3)c([N+](=O)[O-])c2)cn1	45	22.3	
O=C(Nc1ccccc1)c1ccc(N2CCN(c3ccc([N+](=O)[O-])cc3)CC2)c([N+](=O)[O-])c1	14.9		inhibition (J774.A1 [2]): inactive
COc1ccc(-c2cc(-c3ccc(CN4CCN(CCOCCO)CC4)cc3)nc(=O)[nH]2)cc1	17.1	27.2	
O=[N+]([O-])c1cccc(CN2CCN(c3ccc(S(=O)(=O)Nc4ccccc4)cc3[N+](=O)[O-])CC2)c1	71.2	33.9	
CCCCCNCc1ccc(-c2cc(-c3ccccc3)[nH]c(=O)n2)cc1	17.9	16.1	
O=c1[nH]c(-c2ccccc2)nc2cc(CN3CCN(c4ccc([N+](=O)[O-])cc4)CC3)ccc12			inhibition (J774.A1 [1]): inactive; inhibition (J774.A1 [2]): inactive
O=c1nc(-c2ccc(CN3CCN(CCO)CC3)cc2)cc(-c2ccc(Br)cc2)[nH]1	7.52	29.6	
COCCN1CCN(c2ccc(S(=O)(=O)Nc3ccccc3)cc2[N+](=O)[O-])CC1	60.3	16.9	
O=c1[nH]c(-c2ccc(CN3CCN(CCO)CC3)cc2)nc2ccccc12	57.1		inhibition (J774.A1 [2]): inactive
COCCN1CCN(Cc2ccc3c(=O)[nH]c(-c4ccccc4)nc3c2)CC1	29.2		inhibition (J774.A1 [2]): inactive
O=C(Nc1ccccc1)c1ccc(N2CCN(CCO)CC2)c([N+](=O)[O-])c1	47.5	1.01	
COc1ccc(NS(=O)(=O)c2ccc(N3CCN(Cc4ccccc4)CC3)c([N+](=O)[O-])c2)cn1	55.1	27.7	

SMILES	inhibition at 10 µM (J774.A1 [1]) [%]	inhibition at 10 µM (J774.A1 [2]) [%]	also measured
O=C(Nc1cccc2ccccc12)c1ccc(N2CCN(Cc3cccc([N+](=O)[O-])c3)CC2)c([N+](=O)[O-])c1	62.2	39.8	
O=c1cc(-c2ccncc2)nc(-c2ccc(CN3CCN(CCO)CC3)cc2)[nH]1	33.5	8.59	Kd [3]: 795 µM; Activity (J774.A1 [4]): Active
O=C(NCc1ccccn1)c1ccc(N2CCN(Cc3cccc([N+](=O)[O-])c3)CC2)c([N+](=O)[O-])c1	33.1	27	
O=c1nc(-c2ccc(CN3CCN(CCOCCO)CC3)cc2)cc(-c2ccc(Br)cc2)[nH]1	58.4	22.6	
O=C(NCc1ccccn1)c1ccc(N2CCN(Cc3ccc([N+](=O)[O-])cc3)CC2)c([N+](=O)[O-])c1	57.6	37	
O=c1[nH]c(-c2ccccc2)nc2cc(CN3CCN(CCOCCO)CC3)ccc12	24.1		inhibition (J774.A1 [2]): inactive
O=c1nc(-c2ccc(CN3CCN(CCOCCO)CC3)cc2)cc(-c2ccccc2)[nH]1	19.3	14.2	
COCCN1CCN(Cc2ccc(-c3nc4ccccc4c(=O)[nH]3)cc2)CC1	34	22.6	
COc1ccc(NS(=O)(=O)c2ccc(N3CCN(CCO)CC3)c([N+](=O)[O-])c2)cn1	22.2		inhibition (J774.A1 [2]): inactive
O=c1nc(-c2ccc(CN3CCN(CCO)CC3)cc2)cc(-c2ccccc2)[nH]1	18.2	17.9	
O=c1[nH]c(-c2ccccc2)nc2cc(CN3CCN(CCO)CC3)ccc12	46		inhibition (J774.A1 [2]): inactive
COCCN1CCN(Cc2ccc(-c3cc(-c4ccc(OC)cc4)[nH]c(=O)n3)cc2)CC1	14.8	40.8	
O=c1[nH]c(-c2ccc(CN3CCN(c4ccc([N+](=O)[O-])cc4)CC3)cc2)nc2ccccc12	44.1		inhibition (J774.A1 [2]): inactive
O=c1nc(-c2ccc(CNc3nc4ccccc4s3)cc2)cc(-c2ccccc2)[nH]1	79.5	53.3	IC50 (J774.A1 [5]): 0.53 µM; IC50 (J774.A1 [6]): 17.7 µM; Activity (J774.A1 [7]): Non-Toxic; Activity [8]: inactive
COc1ccc(NS(=O)(=O)c2ccc(N3CCN(Cc4ccc([N+](=O)[O-])cc4)CC3)c([N+](=O)[O-])c2)cn1	71.8	37.9	IC50 (J774.A1 [5]): 3.4 µM; IC50 (J774.A1 [6]): 14.1 µM
CC(=O)N1CCN(Cc2ccc(-c3cc(-c4ccc(Br)cc4)[nH]c(=O)n3)cc2)CC1			inhibition (J774.A1 [1]): inactive; inhibition (J774.A1 [2]): inactive
O=[N+]([O-])c1cc(S(=O)(=O)NCc2ccccn2)ccc1N1CCN(CCO)CC1	37.8	6.63	
COCCN1CCN(Cc2ccc(-c3cc(-c4ccc(Br)cc4)[nH]c(=O)n3)cc2)CC1	46.1	41.1	
CCCCCNCc1ccc(-c2cc(-c3ccc(OC)cc3)[nH]c(=O)n2)cc1	35.3	24.1	
COCCN1CCN(c2ccc(S(=O)(=O)NCc3ccccn3)cc2[N+](=O)[O-])CC1	50.4	11.8	
COc1ccc(-c2cc(-c3ccc(CN4CCN(c5ccc([N+](=O)[O-])cc5)CC4)cc3)nc(=O)[nH]2)cc1	35	38.7	
COCCN1CCN(c2ccc(C(=O)Nc3ccccc3)cc2[N+](=O)[O-])CC1	47.8	26.9	
O=C(Nc1ccccc1)c1ccc(N2CCN(Cc3ccc([N+](=O)[O-])cc3)CC2)c([N+](=O)[O-])c1			inhibition (J774.A1 [1]): inactive; inhibition (J774.A1 [2]): inactive
